# From patent US8951964B2, “Phenanthridine macrocyclic hepatitis C serine protease inhibitors” (priority 2010, dated 2015)
# Key:
# Assay type in all cases: cell-based, HCV
# [1] = tested on: genotype 1a transient replicon (1a-H77); test: 1a transient replicon (luciferase reporter); settings: Hepatitis C virus, HuH-7 cells, 5% FBS
# [2] = tested on: genotype 1b transient replicon; test: 1b transient replicon (luciferase reporter); settings: Hepatitis C virus, HuH-7 cells, 5% FBS
# [3] = tested on: genotype 3a NS3 gene in transient replicon; test: 3a transient replicon (luciferase reporter); settings: Hepatitis C virus, Huh-7, read-out: 3a transient replicon (nM)
SMILES,EC50 [1] [nM],EC50 [2] [nM],EC50 [3] [nM]
CC1(S(=O)(=O)NC(=O)[C@@]23C[C@H]2/C=C\CCCCC[C@H](NC(=O)c2ccon2)C(=O)N2C[C@H](Oc4nc5ccccc5c5cc(F)ccc45)C[C@H]2C(=O)N3)CC1,< 0.1,0.1 to 0.5,0.5 to 1
Cc1ccc(C(=O)N[C@H]2CCCCC/C=C\[C@@H]3C[C@@]3(C(=O)NS(=O)(=O)C3(C)CC3)NC(=O)[C@@H]3C[C@@H](Oc4nc5ccccc5c5cc(F)ccc45)CN3C2=O)o1,0.1 to 0.5,0.1 to 0.5,0.1 to 0.5
Cc1ccc(C(=O)N[C@H]2CCCCC/C=C\[C@@H]3C[C@@]3(C(=O)NS(=O)(=O)C3(C)CC3)NC(=O)[C@@H]3C[C@@H](Oc4nc5cc(F)ccc5c5cc(F)ccc45)CN3C2=O)s1,0.1 to 0.5,0.1 to 0.5,> 1
CC1(S(=O)(=O)NC(=O)[C@@]23C[C@H]2/C=C\CCCCC[C@H](NC(=O)c2ccn(C(F)F)n2)C(=O)N2C[C@H](Oc4nc5cc(F)ccc5c5ccc(OC(F)(F)F)cc45)C[C@H]2C(=O)N3)CC1,0.1 to 0.5,0.1 to 0.5,> 1
Cn1ccc(C(=O)N[C@H]2CCCCC/C=C\[C@@H]3C[C@@]3(C(=O)NS(=O)(=O)C3(C)CC3)NC(=O)[C@@H]3C[C@@H](Oc4nc5ccccc5c5ccc(OC(F)(F)F)cc45)CN3C2=O)n1,0.1 to 0.5,0.1 to 0.5,0.1 to 0.5
Cc1ccc(C(=O)N[C@H]2CCCCC/C=C\[C@@H]3C[C@@]3(C(=O)NS(=O)(=O)C3(C)CC3)NC(=O)[C@@H]3C[C@@H](Oc4nc5ccccc5c5cc(F)ccc45)CN3C2=O)s1,0.1 to 0.5,0.1 to 0.5,> 1
Cn1ccc(C(=O)N[C@H]2CCCCC/C=C\[C@@H]3C[C@@]3(C(=O)NS(=O)(=O)C3(C)CC3)NC(=O)[C@@H]3C[C@@H](Oc4nc5cc(F)ccc5c5ccc(OC(F)(F)F)cc45)CN3C2=O)n1,< 0.1,0.1 to 0.5,0.1 to 0.5
Cc1cc(C(=O)N[C@H]2CCCCC/C=C\[C@@H]3C[C@@]3(C(=O)NS(=O)(=O)C3(C)CC3)NC(=O)[C@@H]3C[C@@H](Oc4nc5cc(F)ccc5c5ccc(OC(F)(F)F)cc45)CN3C2=O)no1,< 0.1,0.1 to 0.5,> 1
CC1(S(=O)(=O)NC(=O)[C@@]23C[C@H]2/C=C\CCCCC[C@H](NC(=O)c2ccn(C(F)F)n2)C(=O)N2C[C@H](Oc4nc5ccccc5c5ccc(OC(F)(F)F)cc45)C[C@H]2C(=O)N3)CC1,0.1 to 0.5,0.1 to 0.5,> 1
Cc1cc(C(=O)N[C@H]2CCCCC/C=C\[C@@H]3C[C@@]3(C(=O)NS(=O)(=O)C3(C)CC3)NC(=O)[C@@H]3C[C@@H](Oc4nc5ccccc5c5ccc(OC(F)(F)F)cc45)CN3C2=O)no1,< 0.1,0.1 to 0.5,> 1
Cc1ccc(C(=O)N[C@H]2CCCCC/C=C\[C@@H]3C[C@@]3(C(=O)NS(=O)(=O)C3(C)CC3)NC(=O)[C@@H]3C[C@@H](Oc4nc5ccccc5c5ccc(OC(F)(F)F)cc45)CN3C2=O)o1,0.1 to 0.5,0.1 to 0.5,< 0.1
CC1(S(=O)(=O)NC(=O)[C@@]23C[C@H]2/C=C\CCCCC[C@H](NC(=O)[C@H](O)C(F)(F)F)C(=O)N2C[C@H](Oc4nc5cc(F)ccc5c5cc(F)ccc45)C[C@H]2C(=O)N3)CC1,< 0.1,< 0.1,> 1
CC1(S(=O)(=O)NC(=O)[C@@]23C[C@H]2/C=C\CCCCC[C@H](NC(=O)c2ccon2)C(=O)N2C[C@H](Oc4nc5cc(OC(F)(F)F)ccc5c5ccccc45)C[C@H]2C(=O)N3)CC1,< 0.1,< 0.1,0.1 to 0.5
CC1(S(=O)(=O)NC(=O)[C@@]23C[C@H]2/C=C\CCCCC[C@H](NC(=O)c2ccon2)C(=O)N2C[C@H](Oc4nc5cc(OC(F)(F)F)ccc5c5cc(F)ccc45)C[C@H]2C(=O)N3)CC1,0.1 to 0.5,0.1 to 0.5,0.1 to 0.5
Cc1ccc(C(=O)N[C@H]2CCCCC/C=C\[C@@H]3C[C@@]3(C(=O)NS(=O)(=O)C3(C)CC3)NC(=O)[C@@H]3C[C@@H](Oc4nc5cc(OC(F)(F)F)ccc5c5cc(F)ccc45)CN3C2=O)s1,0.5 to 1,0.1 to 0.5,0.1 to 0.5
CC1(S(=O)(=O)NC(=O)[C@@]23C[C@H]2/C=C\CCCCC[C@H](NC(=O)[C@H](O)C(F)(F)F)C(=O)N2C[C@H](Oc4nc5cc(OC(F)(F)F)ccc5c5ccccc45)C[C@H]2C(=O)N3)CC1,< 0.1,< 0.1,0.5 to 1
Cn1ccc(C(=O)N[C@H]2CCCCC/C=C\[C@@H]3C[C@@]3(C(=O)NS(=O)(=O)C3(C)CC3)NC(=O)[C@@H]3C[C@@H](Oc4nc5cc(F)ccc5c5cc(OC(F)(F)F)ccc45)CN3C2=O)n1,0.1 to 0.5,0.1 to 0.5,> 1
CC1(S(=O)(=O)NC(=O)[C@@]23C[C@H]2/C=C\CCCCC[C@H](NC(=O)c2ccon2)C(=O)N2C[C@H](Oc4nc5cc(F)ccc5c5cc(OC(F)(F)F)ccc45)C[C@H]2C(=O)N3)CC1,< 0.1,0.1 to 0.5,> 1
CC1(S(=O)(=O)NC(=O)[C@@]23C[C@H]2/C=C\CCCCC[C@H](NC(=O)c2ccn(C(F)F)n2)C(=O)N2C[C@H](Oc4nc5cc(F)ccc5c5cc(OC(F)(F)F)ccc45)C[C@H]2C(=O)N3)CC1,0.1 to 0.5,0.1 to 0.5,> 1
COc1ccc2c(c1)nc(O[C@@H]1C[C@H]3C(=O)N[C@]4(C(=O)NS(=O)(=O)C5(C)CC5)C[C@H]4/C=C\CCCCC[C@H](NC(=O)c4ccn(C)n4)C(=O)N3C1)c1ccc(F)cc12,0.1 to 0.5,0.1 to 0.5,0.1 to 0.5
COc1ccc2c(c1)nc(O[C@@H]1C[C@H]3C(=O)N[C@]4(C(=O)NS(=O)(=O)C5(C)CC5)C[C@H]4/C=C\CCCCC[C@H](NC(=O)c4ccon4)C(=O)N3C1)c1ccc(F)cc12,< 0.1,0.1 to 0.5,0.1 to 0.5
COc1ccc2c(c1)nc(O[C@@H]1C[C@H]3C(=O)N[C@]4(C(=O)NS(=O)(=O)C5(C)CC5)C[C@H]4/C=C\CCCCC[C@H](NC(=O)c4ccn(C(F)F)n4)C(=O)N3C1)c1ccc(F)cc12,0.1 to 0.5,0.1 to 0.5,0.5 to 1
CC1(S(=O)(=O)NC(=O)[C@@]23C[C@H]2/C=C\CCCCC[C@H](NC(=O)[C@H](O)C(F)(F)F)C(=O)N2C[C@H](Oc4nc5cc(OC(F)(F)F)ccc5c5ccc(F)cc45)C[C@H]2C(=O)N3)CC1,< 0.1,< 0.1,> 1
Cc1ccc(C(=O)N[C@H]2CCCCC/C=C\[C@@H]3C[C@@]3(C(=O)NS(=O)(=O)C3(C)CC3)NC(=O)[C@@H]3C[C@@H](Oc4nc5cc(OC(F)(F)F)ccc5c5ccc(F)cc45)CN3C2=O)s1,0.1 to 0.5,0.1 to 0.5,> 1
CC1(S(=O)(=O)NC(=O)[C@@]23C[C@H]2/C=C\CCCCC[C@H](NC(=O)c2ccon2)C(=O)N2C[C@H](Oc4nc5cc(OC(F)(F)F)ccc5c5ccc(F)cc45)C[C@H]2C(=O)N3)CC1,< 0.1,< 0.1,0.5 to 1
CC1(S(=O)(=O)NC(=O)[C@@]23C[C@H]2/C=C\CCCCC[C@H](NC(=O)c2cncs2)C(=O)N2C[C@H](Oc4nc5cc(OC(F)(F)F)ccc5c5ccc(F)cc45)C[C@H]2C(=O)N3)CC1,0.1 to 0.5,0.1 to 0.5,> 1
Cc1cc(C(=O)N[C@H]2CCCCC/C=C\[C@@H]3C[C@@]3(C(=O)NS(=O)(=O)C3(C)CC3)NC(=O)[C@@H]3C[C@@H](Oc4nc5cc(OC(F)(F)F)ccc5c5ccc(F)cc45)CN3C2=O)no1,0.1 to 0.5,0.1 to 0.5,> 1
